Target: MDM2 (Homo sapiens, UniProt Q00987)
Test: MDM2 binding screen of Libraries 3 and 4: displacement of fluorescent probe F-M8 at 750 nM macrocycle
Summary of the method: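 Competition with nutlin-3a was run using the fluorescein conjugate. Library members came from scaffolds reacted 6 h at room temperature with carboxylic acids (20 equiv.), HBTU and DABCO in DMSO. Quenching was overnight in Tris-Cl pH 7.4 buffer with 0.01% Tween20.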

[1] = Panel c, Library 4: best nine scaffolds and 15 additional carboxylic acids, displacement of fluorescent probe
[2] = Panel b, Library 3: 63 scaffolds combinatorially acylated with 15 carboxylic acids at 30 picomole scale, displacement of fluorescent peptide probe, macrocycle 750 nM

Chain of MDM2 (Q00987 whole entry): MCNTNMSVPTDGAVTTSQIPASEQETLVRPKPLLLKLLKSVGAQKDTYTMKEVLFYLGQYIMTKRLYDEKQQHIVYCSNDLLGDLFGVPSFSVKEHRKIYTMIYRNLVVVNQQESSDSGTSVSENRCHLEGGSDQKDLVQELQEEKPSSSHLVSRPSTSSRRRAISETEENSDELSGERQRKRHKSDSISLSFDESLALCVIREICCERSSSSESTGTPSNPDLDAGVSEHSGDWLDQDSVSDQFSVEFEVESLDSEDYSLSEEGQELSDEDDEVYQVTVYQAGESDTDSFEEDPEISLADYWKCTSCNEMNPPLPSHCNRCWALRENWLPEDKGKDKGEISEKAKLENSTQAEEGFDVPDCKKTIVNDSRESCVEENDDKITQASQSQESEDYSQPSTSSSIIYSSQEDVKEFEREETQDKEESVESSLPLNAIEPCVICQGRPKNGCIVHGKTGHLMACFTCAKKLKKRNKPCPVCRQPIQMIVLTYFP

Row | SMILES | fraction of fluorescent probe displaced [1] | fraction of fluorescent probe displaced [2]
1 | CC(C)c1ccc(C=CC(=O)NCC2NC(=O)C3CCCN(C3)C(=O)CCSSCCNC(=O)C(Cc3c[nH]c4ccccc34)NC2=O)cc1 (stereo not drawn) [X-Nip-Dap-Trp + Acid 127] | 0.313 | 
2 | O=C(NC[C@@H]1NC(=O)[C@@H]2CN(CCO2)C(=O)CCSSCCNC(=O)[C@H](Cc2c[nH]c3cc(Cl)ccc23)NC1=O)c1ccc(Cl)s1 [X-Cop-Dap-Cl-Trp + Acid 14] |  | 0.128
3 | O=C(/C=C/c1ccc2ccccc2c1)NCCN1CC(=O)N[C@@H](Cc2ccc3ccccc3c2)C(=O)NCCSSCCC(=O)N2CCO[C@@H](C2)C1=O [X-Cop-N-Aeg-2-Nal + Acid 112] |  | 0.035
4 | CN1C(=O)[C@@H](CNC(=O)c2ccc(Cl)s2)NC(=O)[C@@H]2CN(CCO2)C(=O)CCSSCCNC(=O)[C@@H]1Cc1c[nH]c2ccccc12 [X-Cop-D-Dap-NMe-Trp + Acid 14] |  | -0.019
5 | O=C(/C=C/c1ccc(OCc2ccccc2)cc1)NCCN1CC(=O)N[C@@H](Cc2c[nH]c3ccccc23)C(=O)NCCSSCCC(=O)N2CCO[C@@H](C2)C1=O [X-Cop-N-Aeg-Trp + Acid 110] |  | 0.015
6 | Cn1cc(C[C@@H]2NC(=O)[C@H](CNC(=O)C3COc4ccccc4O3)NC(=O)C3(CC3)CNC(=O)CCSSCCNC2=O)c2ccccc21 (stereo partly shown) [X-Amcp-Dap-Me-Trp + Acid 115] |  | 0.015
7 | Cn1cc(C[C@@H]2NC(=O)[C@@H](CNC(=O)c3ccc(Cl)s3)NC(=O)C3(CC3)CNC(=O)CCSSCCNC2=O)c2ccccc21 [X-Amcp-D-Dap-Me-Trp + Acid 14] |  | -0.032
8 | O=C(/C=C/c1ccc2ccccc2c1)NC[C@H]1NC(=O)[C@@H]2CN(CCO2)C(=O)CCSSCCNC(=O)[C@H](Cc2c[nH]c3cc(Cl)ccc23)NC1=O [X-Cop-D-Dap-Cl-Trp + Acid 112] |  | 0.055
9 | O=C1CCSSCCNC(=O)[C@H](Cc2cccc3ccccc23)NC(=O)[C@@H](CNC(=O)C2COc3ccccc3O2)NC(=O)C2(CC2)CN1 (stereo partly drawn) [X-Amcp-D-Dap-1-NaI + Acid 115] |  | 0.015
10 | O=C(NC[C@H]1NC(=O)[C@@H]2CN(CCO2)C(=O)CCSSCCNC(=O)[C@H](Cc2c[nH]c3cc(Cl)ccc23)NC1=O)c1ccc(Cl)s1 [X-Cop-D-Dap-Cl-Trp + Acid 14] |  | -0.00533
11 | O=C1CCSSCCNC(=O)C(Cc2ccc3ccccc3c2)NC(=O)C(CNC(=O)C2CC2c2ccccc2)NC(=O)C2(CC2)CN1 [X-Amcp-D-Dap-2-Nal + Acid 105] |  | -0.00844
12 | CN1C(=O)[C@H](CNC(=O)c2ccc3ccccc3c2)NC(=O)[C@H]2CCCN(C2)C(=O)CCSSCCNC(=O)[C@@H]1Cc1c[nH]c2ccccc12 [X-Nip-Dap-NMe-Trp + Acid 107] |  | 0.031
13 | Cn1cc(C[C@@H]2NC(=O)[C@@H](CNC(=O)/C=C/c3ccc(Cl)cc3)NC(=O)[C@@H]3CN(CCO3)C(=O)CCSSCCNC2=O)c2ccccc21 [X-Cop-D-Dap-Me-Trp + Acid 108] |  | 0.021
14 | O=C(NCC1NC(=O)C2CN(CCO2)C(=O)CCSSCCNC(=O)C(Cc2c[nH]c3cc(Cl)ccc23)NC1=O)c1ccc(Cl)cc1 (stereo not drawn) [X-Cop-Dap-Cl-Trp + Acid 25] |  | 0.088
15 | O=C(/C=C/c1ccc(Cl)cc1)NC[C@@H]1NC(=O)C2(CC2)CNC(=O)CCSSCCNC(=O)[C@H](Cc2c[nH]c3cc(Cl)ccc23)NC1=O [X-Amcp-Dap-Cl-Trp + Acid 108] |  | 0.00133
16 | O=C(NC[C@@H]1NC(=O)[C@H]2CCCN(C2)C(=O)CCSSCCNC(=O)[C@H](Cc2cccc3ccccc23)NC1=O)c1ccc2ccccc2c1 [X-Nip-Dap-1-NaI + Acid 107] |  | 0.056
17 | O=C(/C=C/c1ccc(OCc2ccccc2)cc1)NC[C@H]1NC(=O)C2(CC2)CNC(=O)CCSSCCNC(=O)[C@H](Cc2c[nH]c3ccccc23)NC1=O [X-Amcp-D-Dap-Trp + Acid 110] |  | 0.015
18 | O=C(/C=C/c1ccc(Cl)cc1)NC[C@@H]1NC(=O)[C@H]2CCCN(C2)C(=O)CCSSCCNC(=O)[C@H](Cc2c[nH]c3ccccc23)NC1=O [X-Nip-Dap-Trp + Acid 108] |  | 0.421
19 | CN1C(=O)[C@@H](CNC(=O)c2ccc3ccccc3c2)NC(=O)C2(CC2)CNC(=O)CCSSCCNC(=O)[C@@H]1Cc1c[nH]c2ccccc12 [X-Amcp-D-Dap-NMe-Trp + Acid 107] |  | 0.031
20 | O=C1CCSSCCNC(=O)[C@H](Cc2c[nH]c3ccccc23)NC(=O)[C@@H](CNC(=O)C2CC2c2ccccc2)NC(=O)C2(CC2)CN1 (stereo partly drawn) [X-Amcp-D-Dap-Trp + Acid 105] |  | -0.015
21 | O=C(CCS(=O)(=O)c1ccccc1)NC[C@H]1NC(=O)[C@H]2CCCN(C2)C(=O)CCSSCCNC(=O)[C@@H](Cc2c[nH]c3ccccc23)NC1=O [X-Nip-D-Dap-D-Trp + Acid 114] |  | 0.021
22 | O=C(CCS(=O)(=O)c1ccccc1)NC[C@@H]1NC(=O)[C@@H]2CN(CCO2)C(=O)CCSSCCNC(=O)[C@H](Cc2ccc3ccccc3c2)NC1=O [X-Cop-Dap-2-Nal + Acid 114] |  | -0.00533

Row | SMILES | fraction of fluorescent probe displaced [1] | fraction of fluorescent probe displaced [2]
23 | O=C1CCSSCCNC(=O)[C@H](Cc2ccc3ccccc3c2)NC(=O)[C@H](CNC(=O)c2cccc(Oc3ccccc3)c2)NC(=O)C2(CC2)CN1 [X-Amcp-Dap-2-Nal + Acid 111] |  | 0.00133
24 | CN1C(=O)CN(CCNC(=O)/C=C/c2ccc3ccccc3c2)C(=O)C2(CC2)CNC(=O)CCSSCCNC(=O)[C@@H]1Cc1c[nH]c2ccccc12 [X-Amcp-N-Aeg-NMe-Trp + Acid 112] |  | -0.019
25 | CN1C(=O)C(CNC(=O)C2COc3ccccc3O2)NC(=O)C2(CC2)CNC(=O)CCSSCCNC(=O)C1Cc1c[nH]c2ccccc12 (mixture of isomers) [X-Amcp-D-Dap-NMe-Trp + Acid 115] |  | 0.015
26 | O=C1CCSSCCNC(=O)C(Cc2c[nH]c3ccccc23)NC(=O)C(CNC(=O)C2CC2c2ccccc2)NC(=O)C2(CC2)CN1 (mixture of isomers) [X-Amcp-D-Dap-D-Trp + Acid 105] |  | -0.041
27 | O=C(NC[C@@H]1NC(=O)[C@H]2CCCN(C2)C(=O)CCSSCCNC(=O)[C@H](Cc2cccc3ccccc23)NC1=O)c1cnc2ccccc2n1 [X-Nip-Dap-1-NaI + Acid 130] | 0.020 | 
28 | O=C(O)c1cccc(Oc2ccccc2)c1 [Acid 111] |  | 0.015
29 | O=C(NC[C@H]1NC(=O)[C@@H]2CN(CCO2)C(=O)CCSSCCNC(=O)[C@H](Cc2ccc3ccccc3c2)NC1=O)c1ccc(Cl)cc1 [X-Cop-D-Dap-2-Nal + Acid 25] |  | 0.00133
30 | O=C1CCSSCCNC(=O)C(Cc2ccc3ccccc3c2)NC(=O)CN(CCNC(=O)C2CC2c2ccccc2)C(=O)C2(CC2)CN1 (stereo not shown) [X-Amcp-N-Aeg-2-Nal + Acid 105] |  | -0.041
31 | Cn1cc(C[C@@H]2NC(=O)[C@H](CNC(=O)/C=C/c3cccc(Cl)c3)NC(=O)[C@H]3CCCN(C3)C(=O)CCSSCCNC2=O)c2ccccc21 [X-Nip-Dap-Me-Trp + Acid 121] | 0.118 | 
32 | O=C1CCSSCCNC(=O)[C@H](Cc2c[nH]c3cc(Cl)ccc23)NC(=O)[C@@H](CNC(=O)c2ccc(Cl)s2)NC(=O)C2(CC2)CN1 [X-Amcp-D-Dap-Cl-Trp + Acid 14] |  | 0.008
33 | CC(Oc1cccc(Cl)c1)C(=O)NCC1NC(=O)C2CCCN(C2)C(=O)CCSSCCNC(=O)C(Cc2c[nH]c3ccccc23)N(C)C1=O (mixture of isomers) [X-Nip-D-Dap-NMe-Trp + Acid 113] |  | 0.00133
34 | O=C1CCSSCCNC(=O)[C@H](Cc2c[nH]c3cc(Cl)ccc23)NC(=O)CN(CCNC(=O)C2COc3ccccc3O2)C(=O)C2(CC2)CN1 (stereo partly shown) [X-Amcp-N-Aeg-Cl-Trp + Acid 115] |  | 0.00133
35 | CC(Oc1cccc(Cl)c1)C(=O)NC[C@@H]1NC(=O)[C@H]2CCCN(C2)C(=O)CCSSCCNC(=O)[C@H](Cc2cccc3ccccc23)NC1=O (stereo partly drawn) [X-Nip-Dap-1-NaI + Acid 113] |  | -0.019
36 | CN1C(=O)[C@H](CNC(=O)/C=C/c2ccc(OCc3ccccc3)cc2)NC(=O)[C@H]2CCCN(C2)C(=O)CCSSCCNC(=O)[C@@H]1Cc1c[nH]c2ccccc12 [X-Nip-Dap-NMe-Trp + Acid 110] |  | 0.015
37 | CC(Oc1cccc(Cl)c1)C(=O)NCCN1CC(=O)N[C@@H](Cc2ccc3ccccc3c2)C(=O)NCCSSCCC(=O)NCC2(CC2)C1=O (stereo partly shown) [X-Amcp-N-Aeg-2-Nal + Acid 113] |  | 0.008
38 | O=C1CCSSCCNC(=O)C(Cc2c[nH]c3ccccc23)NC(=O)C(CNC(=O)C2COc3ccccc3O2)NC(=O)C2(CC2)CN1 (mixture of isomers) [X-Amcp-Dap-Trp + Acid 115] |  | 0.00133
39 | O=C(/C=C/c1ccc(F)cc1)NC[C@@H]1NC(=O)[C@H]2CCCN(C2)C(=O)CCSSCCNC(=O)[C@H](Cc2ccc3ccccc3c2)NC1=O [X-Nip-Dap-2-Nal + Acid 116] | 0.052 | 
40 | CC(=Cc1ccccc1)C(=O)NCC1NC(=O)C2CCCN(C2)C(=O)CCSSCCNC(=O)C(Cc2cccc3ccccc23)NC1=O (stereo not drawn) [X-Nip-Dap-1-NaI + Acid 123] | -0.013 | 
41 | O=C(/C=C/c1ccc(Cl)c(Cl)c1)NC[C@@H]1NC(=O)[C@@H]2CN(CCO2)C(=O)CCSSCCNC(=O)[C@H](Cc2c[nH]c3cc(Cl)ccc23)NC1=O [X-Cop-Dap-Cl-Trp + Acid 119] | 0.126 | 
42 | O=C1CCSSCCNC(=O)[C@H](Cc2ccc3ccccc3c2)NC(=O)CN(CCNC(=O)c2ccc3ccccc3c2)C(=O)C2(CC2)CN1 [X-Amcp-N-Aeg-2-Nal + Acid 107] |  | 0.018
43 | O=C(/C=C/c1ccc2ccccc2c1)NC[C@@H]1NC(=O)[C@H]2CCCN(C2)C(=O)CCSSCCNC(=O)[C@H](Cc2cccc3ccccc23)NC1=O [X-Nip-Dap-1-NaI + Acid 112] |  | 0.095

— publication PMC9250534, “Synthesis and direct assay of large macrocycle diversities by combinatorial late-stage modification at picomole scale” (Nature Communications, 2022)
